From ChEMBL document CHEMBL1158101, “Protein tyrosine phosphatase-1B inhibitory activity of isoprenylated flavonoids isolated from Erythrina mildbraedii” (J Nat Prod, 2006) come the findings set out here.

SMILES strings stand for the structures.

For this test, the target named is T1, Tyrosine-protein phosphatase non-receptor type 1 (Homo sapiens, UniProt P18031).
T1 sequence (P18031 whole entry): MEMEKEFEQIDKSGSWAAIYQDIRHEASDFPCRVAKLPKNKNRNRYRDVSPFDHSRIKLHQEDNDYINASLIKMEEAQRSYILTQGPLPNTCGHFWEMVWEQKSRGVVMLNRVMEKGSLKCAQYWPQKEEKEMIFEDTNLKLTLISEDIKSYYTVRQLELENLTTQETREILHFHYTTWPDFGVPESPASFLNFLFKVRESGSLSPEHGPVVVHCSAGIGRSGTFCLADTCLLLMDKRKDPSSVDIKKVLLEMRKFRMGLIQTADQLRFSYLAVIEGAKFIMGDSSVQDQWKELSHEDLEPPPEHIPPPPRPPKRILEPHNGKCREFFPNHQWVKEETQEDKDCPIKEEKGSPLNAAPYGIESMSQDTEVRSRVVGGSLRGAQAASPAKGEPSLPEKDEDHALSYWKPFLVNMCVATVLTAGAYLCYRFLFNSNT
Description: Inhibition of human recombinant PTP1B.
For `COc1ccc(/C=C/C(=O)c2ccc(O)cc2O)cc1`, the half-inhibitory concentration (IC50) (usually the midpoint of a concentration-inhibition curve) is above 60 µM.

As for `COc1cc(OC)c2c(=O)c(-c3ccc(O)cc3)coc2c1`, the IC50 was above 60 µM.

`COc1c(CC=C(C)C)cc([C@@H]2CC(=O)c3c(O)cc(O)cc3O2)cc1CC=C(C)C`: the IC50 is 26.3 µM.

Regarding `COc1c(CC=C(C)C)cc([C@@H]2CC(=O)c3ccc(O)cc3O2)cc1CC=C(C)C`, the IC50 was determined as 21.2 µM.

For the compound `COc1c(CC=C(C)C)cc(/C=C/C(=O)c2ccc(O)cc2O)cc1CC=C(C)C`, the IC50 was 14.8 µM.

In the case of `COc1c(/C=C/C(C)(C)O)cc([C@@H]2CC(=O)c3ccc(O)cc3O2)cc1CC=C(C)C`, the IC50 was above 60 µM.

Turning to `CC(C)=CCc1cc([C@@H]2CC(=O)c3ccc(O)cc3O2)cc(CC=C(C)C)c1O` [ABYSSINONE IV], the IC50 was determined as 16 µM.

Take `CC(C)=CCc1cc([C@@H]2CC(=O)c3c(O)cc(O)cc3O2)cc(CC=C(C)C)c1O` [ABYSSINONE V]: the IC50 turned out to be 39.7 µM.

On to `CC1(C)C=Cc2c(cc3occ(-c4ccc(O)cc4)c(=O)c3c2O)O1` [ALPINUMISOFLAVONE], for which the IC50 was determined as 41.5 µM.

As for `O=C(/C=C/c1ccc(O)cc1)c1ccc(O)cc1O` [ISOLIQUIRITIGENIN], the IC50 is above 60 µM.

In the case of `O=C1C[C@@H](c2ccc(O)cc2)Oc2cc(O)ccc21` [LIQUIRTIGENIN], the IC50 is above 60 µM.

Regarding `C[C@@H]1O[C@@H](O[C@H]2[C@H](Oc3cc(O)c4c(c3)O[C@H](c3ccc(O)cc3)CC4=O)O[C@H](CO)[C@@H](O)[C@@H]2O)[C@H](O)[C@H](O)[C@H]1O` [NARINGIN], the IC50 is above 60 µM.

Regarding `CC(C)=CCc1cc([C@@H]2CC(=O)c3c(O)cc(O)cc3O2)cc2c1OC(C)(C)C=C2` [SIGMOIDIN E], the IC50 amounted to 39.2 µM.
